The values below come from publication PMC5355322, “Enhancement of the bioavailability of a novel anticancer compound (acetyltanshinone IIA) by encapsulation within mPEG-PLGA nanoparticles: a study of formulation optimization, toxicity, and pharmacokinetics” (Oncotarget, 2017).

Read-outs that look alike come from different tables or passages of the source.

Data set [1] relates to ER. To be noted: ref [23]; cited from earlier work.
Data set [2] deals with ER+ breast cancer cells. To be noted: compared with tamoxifen; ref [23]; cited from earlier work.
In data set [3] the test system is MCF-7 breast cancer cells. As to the kind of experiment: MTT cell viability assay, MCF-7. Type of data set: cell-based. To be noted: for reduction of viability of MCF-7 cells: 10 μM and 20 μM; for IC50: Homo sapiens, MCF7. As for the experimental part: (§1) Meanwhile, human umbilical vein endothelial cells (HUVEC) were used to determine the general toxicity of ATA NPs on non-cancerous cells. Cells were treated with free ATA or ATA NPs at six concentrations: 0.625, 1.25, 2.5, 5, 10, and 20 μM for 24, 48, and 72 h. Cell viability was determined by the MTT assay and the experiment was conducted in triplicate.
(§2) The MTT reduction ability was determined as an index of the metabolic viability, in particular mitochondrial function, of the cells. Briefly, MCF-7 cells or HUVEC were seeded in 96-well plates and allowed to grow overnight. Free ATA (dissolved in DMSO, diluted with DMEM), ATA NPs, or blank NPs were added at different concentrations and the cells were incubated for 24, 48, and 72 h. MTT solution (10 μL; 5 mg/mL) was added into each well for 4 h. One hundred microliters of 1% SDS (containing 0.1% concentrated hydrochloric acid) was then added in each well to dissolve the formazan crystals. After 8 h, the absorbance of solubilized MTT formazan products were measured at 595 nm, and the cell viability was calculated from the OD value of the test sample and the vehicle control (untreated cells) using the following equation: cell viability (%) = ODtest sample /ODvehicle control × 100. The data obtained in triplicate from three independent experiments were presented as the mean ± SD.
(In general: Tetrazolium dyes change colour on reduction, which living cells bring about.)

Data set [4] is described as follows: Drug release by dialysis. The data set is classed as physicochemical. To be noted: after 22 h, water with 1% SDS, 37°C. The protocol: The release of ATA from ATA NPs was investigated using dialysis and compared with the release of free ATA in solution [38–41]. Free ATA, or ATA NPs containing an equal amount of ATA, was mixed with release medium (6 mL ultra-pure water with 1% SDS) and placed in a dialysis sack (MWCO 12,000, Sigma). The pocket was then immersed in release medium (50 mL) with gentle stirring at 37°C. Samples of medium from outside of the pocket (2 mL) were taken at the designated time intervals for analysis, and an equal volume of fresh release medium was replenished. The amount of released drug was determined by the RP-HPLC method described in the section “Pharmacokinetics of ATA NPs in rats” below. The similarity of release profiles between the free ATA and ATA NPs were evaluated by the similarity factor (f2) shown below: f2=50log {[1+1/n∑t=1n(Rt−Tt)^2]^−0.5×100}
where n is the number of the time points, Rt is the release value of ATA NPs at time t, and Tt is the release value of free ATA.

Data set [5] relates to ER. To be noted: ref [23]; cited from earlier work. This is another data set of the same source.
Data set [6] deals with human umbilical vein endothelial cells (HUVEC). The data set is described as follows: MTT cell viability assay, HUVEC. To be noted: for IC50: Homo sapiens, HUVEC. Type of data set: cell-based. As for the experimental part: as §1, §2
Data set [7] can be described thus: Pharmacokinetics in rats after single intravenous administration (RP-HPLC). Type of data set: in vivo, rat. To be noted: for half-life: rat, whole blood, 8 mg/kg. As for the experimental part: The pharmacokinetic parameters of ATA were determined using two-chamber model and calculated using Excel PKsolver. According to the requirements for the selection of pharmacokinetic calculation model, the values of Akaike's information criterion and residual sum of squares (Re) were minimized, while the value of the determinate coefficient (r) was maximized. The mean retention time was calculated by statistical moment analysis.
Free ATA was suspended in a solution of PEG300: Ethanol: Tween 80 (60:25:15, v:v:v). […] At different time points (15 min, 30 min, 1, 2, 3, 4, 5, 6, 8, and 24 h), blood samples (0.3 mL) were collected from the suborbital vein and put into heparinized tubes. The blood samples were centrifuged at 3,000 rpm at 4°C for 10 min to obtain plasma. Then, the samples were pretreated and injected into RP-HPLC for detection. Microsoft Excel PKSolver was used to analyze the pharmacokinetic data. All animal studies were done in accordance with the protocol of ARF SBS NIE A-0146 AZ approved by the Institutional Animal Care and Use Committee, Nanyang Technological University, Singapore.
Before the samples were injected into the chromatograph, they were subjected to protein denaturation and precipitation. Briefly, acetonitrile (700 μL) was added to each 300 μL sample to precipitate the proteins and extract ATA. Samples were vortex mixed for 15 min and then centrifuged for 10 min at 14,000 rpm at 4°C. The deproteinized supernatant was recovered and analyzed immediately by RP-HPLC.
The concentration of ATA in plasma or whole blood was measured by RP-HPLC analysis as described above. The standard stock solution of ATA was added into the plasma or blood at different concentrations and subjected to sample pretreatment. The calibration graphs were based on linear regression analysis of the peak-area of ATA versus the concentration of ATA [32–36]. The extraction recoveries of ATA from rat plasma were determined at the concentrations of 0.0005, 0.01, and 50 μg/mL and from rat blood at the concentrations of 0.1, 5, and 100 μg/mL, using five replicates. The precision and accuracy of the method were examined at three concentrations of samples. The intra-day precisions were evaluated by analyzing five replicate samples in one day. The analysis was performed on five consecutive days for the inter-day precision.

Data set [8] relates to zebrafish larvae. As to the kind of experiment: Heart rate of zebrafish larvae. To be noted: 5 μM, 96 hpf; normal fish larvae 160 bpm. Type of data set: in vivo.
Method: (§3) Various concentrations of the free and nanoparticle forms of ATA were added to zebrafish embryos at four hours post fertilization (hpf).
The temperature of incubator was maintained at 28.5°C to ensure the optimal development of the embryos. Throughout the experiment, incubation solutions with freshly added ATA were replaced daily. Images of the zebrafish were captured in order to document any morphological changes. The heart rate was also recorded as described previously [44–47]. Twenty zebrafish were used in each experimental group and the zebrafish experiments were conducted at least four times.
Details of data set [9]: method as in our previous study in rats. To be noted: rats; ref our previous study in rats; cited from earlier work.
In data set [10] the test system is zebrafish embryos.
Method: as §3
Male and female zebrafish were bred in separate tanks. […] After mating, the selected embryos were collected at 4 hpf and placed in 96-well plates. […] In brief, these embryos were placed in glass petri dishes containing of fresh water (25 mL) with pronase (50 μL; 50 mg/mL) for 4-5 min.
Throughout the experiment, incubation solutions with freshly added ATA were replaced daily. Images of the zebrafish were captured in order to document any morphological changes. […] Twenty zebrafish were used in each experimental group and the zebrafish experiments were conducted at least four times.
The subject of data set [11] is GREB1. To be noted: ref [23]; cited from earlier work.
Setting [12] is: rat whole blood, single i.v. 8 mg/kg.
Setting [13] is: rat whole blood, single i.v. 8 mg/kg, two-chamber model.

On to `C[C@]12CC[C@@H]3c4ccc(O)cc4C[C@@H](CCCCCCCCC[S+]([O-])CCCC(F)(F)C(F)(F)F)[C@H]3[C@@H]1CC[C@@H]2O` (some centres unmarked) [fulvestrant, reference compound], for which, in data set [1], the “effect on ER protein” value is listed as “only reduced the protein level”.
Take `CC(=O)Oc1c(OC(C)=O)c2c(C)coc2c2ccc3c(c12)CCCC3(C)C` [Free ATA, acetyltanshinone IIA]: in data set [2], the “growth inhibition of ER+ breast cancer cells” value is given as “stronger growth inhibition of ER+ breast cancer cells than tamoxifen”. The “reduction of viability of MCF-7 cells” value in [3] (48 and 72 h) is reported as around 100%; in [3] (24 h), “approximately 90%”. In addition, the IC50 (in general, the concentration that gives 50% inhibition) turned out to be 2620 nM in data set [3] (MCF-7, 24 h); 1720 nM in data set [3] (MCF-7, 48 h); 1060 nM in data set [3] (MCF-7, 72 h); 19.3 µM in data set [6] (24 h); 6.67 µM in [6] (48 h); 2.05 µM in data set [6] (72 h). Besides, the ATA released in [4] is on record as 50%. In addition, in data set [1], the “effect on ER protein” value is given as “completely abolished the presence of ER”. In addition, the “expression of ER at the mRNA level” value in [5] is “reduced the expression of ER at the mRNA level”. The “24 h-IC50 in HUVEC cells relative to MCF-7 cells” value in data set [6] (24 h, HUVEC vs MCF-7) came to 7.4 fold. The mean residence time (MRT) (in general, a mean duration of stay, worked out from the concentration-time curve) in [7] (female, SD, iv, rat whole blood, single i.v. 8 mg/kg, statistical moment analysis, read-out: MRT (mean retention time) (converted)) is 15.9 min. Also, the AUC(0-inf) (as a rule, total exposure, with the tail of the curve extrapolated) in [7] (female, SD, iv, rat whole blood, single i.v. 8 mg/kg, two-chamber model) is 0.514 µM·h. In addition, the AUC(0-t) in data set [7] (female, SD, iv, rat whole blood, single i.v. 8 mg/kg, two-chamber model, read-out: AUC0-24h (converted)) was 0.509 µM·h. Further, in data set [7] (female, SD, iv, rat whole blood, single i.v. 8 mg/kg, two-chamber model, read-out: C0 (initial concentration)), the C0 is 4.06 µM. The half-life in data set [7] (female, SD, iv, rat whole blood, single i.v. 8 mg/kg, two-chamber model, read-out: t1/2 alpha (distribution half-life)) stood at 3.55 min; in data set [7] (female, SD, iv, rat whole blood, single i.v. 8 mg/kg, two-chamber model, read-out: t1/2 beta (elimination half-life)), 22.8 min. For the same compound, the “ATA concentration in plasma” value in [7] (rat plasma, i.v. 8 mg/kg, both forms) is “too low to be detected after 15 min”. Moreover, in data set [7] (rat whole blood, i.v. 8 mg/kg), the “time until the blood concentration of ATA was reduced to 0.5 μM” value is 12 min. Also, the “decline of blood ATA concentration” value in [7] (rat whole blood, i.v. 8 mg/kg, 240-min test) was “declined rapidly, and reached a very low level after 30 min”. Moreover, the “AUMC (area under the first moment curve)” value in data set [7] (setting [12]) amounted to 490.97 μM·min^2. Moreover, the “Vss (steady state volume of distribution)” value in [7] (setting [12]) was 4.12 mg/kg/µM. In [7] (setting [13]), the “CL2 (clearance between central and peripheral compartment)” value is on record as 0.10 (mg/kg)/μM/min. For the same compound, the “CL (clearance)” value in data set [7] (setting [13]) is reported as 0.26 (mg/kg)/μM/min. For the same compound, the “V2 (compartment volume of distribution)” value in [7] (setting [13]) is recorded as 2.15 (mg/kg)/μM. For the same compound, the “V (apparent volume of distribution)” value in data set [7] (setting [13]) is 1.97 (mg/kg)/μM. Further, in data set [7] (setting [13]), the “k10 (elimination rate)” value amounted to 0.13 min⁻¹. The “k12 (inter-compartment rate)” value in [7] (setting [13]) is 0.05 min⁻¹. Moreover, in data set [7] (setting [13]), the “k21 (intra-compartment rate)” value was 0.05 min⁻¹. The same compound came in with a heartbeats in data set [8] of 120 bpm. In [9], the bioavailability entry is given as “low bioavailability”. Besides, the “Deformity and mortality rate (%) (total)” value in data set [10] (2.5 μM, 96 hpf) worked out at 40%. In addition, the “Mortality rate (%)” value in data set [10] (5 μM, 96 hpf) was found to be 70%; in data set [10] (10 μM, 96 hpf), 100%; in data set [10] (20 μM, 96 hpf), 100%. Moreover, in [10] (96 hpf), the “dosages that caused deformity or mortality in zebrafish larvae” value is “higher than 1 μM”. Besides, the “Deformity rate (%)” value in data set [10] (zebrafish, in vivo) came out at 20%. In addition, in [11], the “transcription of ER-responsive gene GREB1” value is listed as “reduced the transcription”.
